This note sets out measurements from ChEMBL document CHEMBL1126852 (J Med Chem, 1993).

For the first experiment, the target named is Dihydrofolate reductase (Lactobacillus casei, UniProt P00381). Kind of experiment: Tested for inhibitory activity against dihydrofolate reductase in Lactobacillus casei. Also on record: species or system Lacticaseibacillus casei.
Dihydrofolate reductase (Lactobacillus casei, UniProt P00381), sequence (P00381 whole entry): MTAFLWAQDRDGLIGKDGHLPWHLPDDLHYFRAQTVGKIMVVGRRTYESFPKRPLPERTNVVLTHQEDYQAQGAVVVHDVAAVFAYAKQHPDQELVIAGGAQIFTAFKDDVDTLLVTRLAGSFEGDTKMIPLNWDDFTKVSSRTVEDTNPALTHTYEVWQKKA
Conditions: not given
Take `Cc1sc2nc(N)nc(N)c2c1Cc1ccccc1`: the IC50 (as a rule, the concentration that gives 50% inhibition) was greater than 50 µM. Same read-out and setting: the same measure for `Cc1c(Cc2ccccc2)sc2nc(N)nc(N)c12`: 1.3 µM. In turn, `Cc1c(-c2ccc(Cl)c(Cl)c2)sc2nc(N)nc(N)c12` yielded a 50% inhibitory concentration (IC50) of 2 µM. For `Cc1sc2nc(N)nc(N)c2c1-c1ccc(Cl)cc1`, the IC50 is greater than 50 µM. Regarding `Nc1nc(N)c2c3c(sc2n1)CCCCCCCCCC3`, the IC50 was 12 µM.

For another experiment, the target named is T1, Dihydrofolate reductase (Rattus norvegicus, UniProt Q920D2).
T1 sequence (Q920D2 whole entry): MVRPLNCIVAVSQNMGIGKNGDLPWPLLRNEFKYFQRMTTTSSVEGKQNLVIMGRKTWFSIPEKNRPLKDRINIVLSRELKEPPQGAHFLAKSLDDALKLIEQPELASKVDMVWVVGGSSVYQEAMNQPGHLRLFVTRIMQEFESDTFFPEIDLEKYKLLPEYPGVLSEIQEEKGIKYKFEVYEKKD
Conditions: not given
On to `COc1cc(CCc2sc3nc(N)nc(N)c3c2C)cc(OC)c1OC`, for which the IC50 was determined as 25 µM.

Take `Nc1nc(N)c2c3c(sc2n1)CCCCC3`: 1.3 µM corresponded to half-maximal inhibition (IC50). Same read-out and setting: under `COc1ccc(OC)c(-c2sc3nc(N)nc(N)c3c2C)c1` stands 0.37 µM; under `Nc1nc(N)c2c3c(sc2n1)CCCC3`, 3.9 µM; under `COc1cc(-c2sc3nc(N)nc(N)c3c2C)cc(OC)c1OC`, 1.8 µM.

On to `COc1cc(Cc2sc3nc(N)nc(N)c3c2C)cc(OC)c1OC`, for which inhibition was half-maximal at 51 µM (IC50).

On to `COc1ccc(OC)c(CCCc2csc3nc(N)nc(N)c23)c1`, for which inhibition was half-maximal at 26 µM (IC50).

`Cc1sc2nc(N)nc(N)c2c1Cc1ccccc1` returned an IC50 greater than 37 µM. On the same count and under the same terms, the same measure for `Nc1nc(N)c2c3c(sc2n1)CN(Cc1ccccc1)CC3`: 0.57 µM. On the same count and under the same terms, the same measure for `COc1ccc(OC)c(CCc2sc3nc(N)nc(N)c3c2C)c1`: 5.9 µM; for `COc1ccc(OC)c(Cc2sc3nc(N)nc(N)c3c2C)c1`: 0.4 µM; for `Cc1c(Cc2ccccc2)sc2nc(N)nc(N)c12`: 14 µM. On the same count and under the same terms, the same measure for `Cc1c(-c2ccc(Cl)c(Cl)c2)sc2nc(N)nc(N)c12`: 4.6 µM; for `COc1ccc(OC)c(CCc2csc3nc(N)nc(N)c23)c1`: 3.1 µM. `Cc1sc2nc(N)nc(N)c2c1-c1ccc(Cl)cc1`: the IC50 was greater than 100 µM. Same read-out and setting: the same measure for `Nc1nc(N)c2c3c(sc2n1)CCCCCCCCCC3`: 9.3 µM.

The target of the next experiment is T2, Bifunctional dihydrofolate reductase-thymidylate synthase (Toxoplasma gondii, UniProt Q07422).
T2 sequence (Q07422 whole entry): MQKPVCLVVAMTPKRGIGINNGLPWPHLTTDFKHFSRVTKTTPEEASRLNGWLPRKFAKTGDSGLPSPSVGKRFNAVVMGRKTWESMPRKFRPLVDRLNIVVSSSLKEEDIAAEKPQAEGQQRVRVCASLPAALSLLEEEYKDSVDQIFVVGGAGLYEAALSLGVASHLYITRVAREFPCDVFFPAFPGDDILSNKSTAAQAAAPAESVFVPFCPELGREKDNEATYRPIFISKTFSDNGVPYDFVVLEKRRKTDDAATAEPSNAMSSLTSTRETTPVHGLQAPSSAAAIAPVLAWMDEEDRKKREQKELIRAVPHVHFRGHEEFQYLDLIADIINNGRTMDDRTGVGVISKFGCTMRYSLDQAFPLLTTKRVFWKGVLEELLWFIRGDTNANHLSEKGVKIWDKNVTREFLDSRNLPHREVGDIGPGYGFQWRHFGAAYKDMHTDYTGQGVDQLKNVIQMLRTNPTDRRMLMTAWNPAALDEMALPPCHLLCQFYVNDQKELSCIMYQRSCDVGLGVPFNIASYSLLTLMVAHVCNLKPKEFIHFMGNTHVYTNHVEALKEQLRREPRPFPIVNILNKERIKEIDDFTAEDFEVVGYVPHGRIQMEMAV
Description: Tested for inhibitory activity against dihydrofolate reductase in Toxoplasma gondii.
Conditions: not given
For `Nc1nc(N)c2c3c(sc2n1)CN(Cc1ccccc1)CC3`, the midpoint of inhibition, the IC50, lay at 850 nM.

Another experiment has as its system CCRF-CEM. Kind of experiment: Tested for cell growth inhibition in CCRF-CEM lymphoblasts. The conditions noted are these: Homo sapiens. The class given is functional, cell-based.
`Nc1nc(N)c2c3c(sc2n1)CCCCCC3` returned an IC50 of 12 µM.

In turn, `Cc1c(-c2ccccc2)sc2nc(N)nc(N)c12` came in with a half-maximal inhibitory concentration (IC50) of 14 µM.

Turning to `Cc1c(Cc2ccccc2)sc2nc(N)nc(N)c12`, the IC50 worked out at 15 µM. Still for that read-out and setting: under `Nc1nc(N)c2c3c(sc2n1)CCCCCCCCCC3` stands 3.7 µM.

In a further experiment the target is T3, Dihydrofolate reductase (Pneumocystis carinii, UniProt P16184).
T3 sequence (P16184 whole entry): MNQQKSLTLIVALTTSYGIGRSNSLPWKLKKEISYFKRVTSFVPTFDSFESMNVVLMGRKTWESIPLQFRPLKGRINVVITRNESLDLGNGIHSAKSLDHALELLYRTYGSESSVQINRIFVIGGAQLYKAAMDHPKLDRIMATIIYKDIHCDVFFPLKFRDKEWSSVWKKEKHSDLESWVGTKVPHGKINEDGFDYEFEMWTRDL
Kind of experiment: Tested for inhibitory activity against dihydrofolate reductase in pneumocystis carinii.
Conditions: not given
In turn, `Nc1nc(N)c2c3c(sc2n1)CN(Cc1ccccc1)CC3` displayed an IC50 of 5.2 µM.

Another experiment concerns the target T4, Dihydrofolate reductase (Homo sapiens, UniProt P00374).
T4 sequence (P00374 whole entry): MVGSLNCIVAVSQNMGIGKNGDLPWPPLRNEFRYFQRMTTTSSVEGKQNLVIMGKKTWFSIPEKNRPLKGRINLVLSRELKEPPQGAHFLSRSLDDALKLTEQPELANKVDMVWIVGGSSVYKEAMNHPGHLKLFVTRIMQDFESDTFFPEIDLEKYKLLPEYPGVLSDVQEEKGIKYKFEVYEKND
Description: Tested for inhibitory activity against dihydrofolate reductase in human.
Conditions: not given
In turn, `COc1cc(CCc2sc3nc(N)nc(N)c3c2C)cc(OC)c1OC` registered an IC50 greater than 10 µM. `COc1ccc(OC)c(-c2sc3nc(N)nc(N)c3c2C)c1`: the half-maximal inhibitory concentration (IC50) is 0.75 µM. Turning to `COc1cc(-c2sc3nc(N)nc(N)c3c2C)cc(OC)c1OC`, the IC50 was greater than 10 µM.

As for `COc1cc(Cc2sc3nc(N)nc(N)c3c2C)cc(OC)c1OC`, the IC50 is greater than 10 µM. On the same count and under the same terms, the same measure for `COc1ccc(OC)c(CCc2sc3nc(N)nc(N)c3c2C)c1`: greater than 10 µM; for `COc1ccc(OC)c(Cc2sc3nc(N)nc(N)c3c2C)c1`: 0.73 µM.
